Measurements reported in patent US20230348376A1 (TEIJIN PHARMA LIMITED, priority 2020, published 2023).

What was measured:
[1] = test system: rat oligodendrocyte progenitor cells; test: Promotive activity of rat oligodendrocyte progenitor cell differentiation-2 (immunostaining of MBP); format: cell-based; settings: vitamin D derivative 2 μM, T3 30 nM, 4 days
How it was run: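 Vitamin D derivatives scored as symbols for promoting differentiation, read out by MBP immunostaining. OPCs taken from supernatant after about 22 h shaking (37 °C, 200 rpm) in separation medium.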

[2] = Evaluation of brain penetration in mice (blood and brain concentration at brain Cmax); format: in vivo, mouse; settings: 1 mg/kg single oral dose, C57BL/6J mice; for Concentration in blood (mean ± SD) at brain Cmax / Concentration in brain (mean ± SD) at brain Cmax: n=3; for Kp: male, C57BL/6J, mouse, brain/plasma, po, 1 mg/kg, read-out: Concentration in brain/in blood ratio at brain Cmax
Description: The administration solution was administered orally to C57BL/6J mice (8 weeks old, male, n=3) at a single dose (1 mg/kg). Mice were euthanized at 6 points of 0.25, 0.5, 1, 2, 4, and 8 hours after administration, and plasma and brain sampling were performed. After preparing a homogenate from the collected brain using Tissue Lyser II (QIAGEN #85300), acetonitrile was added to the homogenate and the homogenate was centrifuged (12000 rpm, 5 minutes) to extract the administered test compound contained in the brain. Similarly, the plasma was subjected to addition of acetonitrile and centrifugal separation to extract the administered test compound contained in the plasma. Each extracted sample was subjected to measurement of the concentration of administered test compound using LC/MS/MS (SHIMADZU UFLC/MS/MS (8050)).
Test 2 [0.2 mg/kg Administration Study] […] The administration solution was administered orally to C57BL/6J mice (8 weeks old, male, n=3) at a single dose (0.2 mg/kg). Mice were euthanized at 6 points of 0.25, 0.5, 1, 2, 4, and 8 hours after administration, and plasma and brain sampling were performed. After preparing a homogenate from the collected brain using Tissue Lyser II (QIAGEN #85300), acetonitrile was added to the homogenate and the homogenate was centrifuged (12000 rpm, 5 minutes) to extract the administered compound contained in the brain. Similarly, the plasma was subjected to addition of acetonitrile and centrifugal separation to extract the administered test compound contained in the plasma. Each extracted sample was subjected to measurement of the concentration of administered test compound using LC/MS/MS (SHIMADZU UFLC/MS/MS (8050)).

[3] = biological target: T1, human VDR (Homo sapiens, UniProt P11473); test: Evaluation of VDR transcription activity in human osteoblasts (HOS cells), luciferase reporter; settings: Activity (EC50, VDR transcription activity), HOS cells transfected with human VDR, human RXRα and DR3 luciferase reporter; 21 hours
T1 sequence (P11473 1-427): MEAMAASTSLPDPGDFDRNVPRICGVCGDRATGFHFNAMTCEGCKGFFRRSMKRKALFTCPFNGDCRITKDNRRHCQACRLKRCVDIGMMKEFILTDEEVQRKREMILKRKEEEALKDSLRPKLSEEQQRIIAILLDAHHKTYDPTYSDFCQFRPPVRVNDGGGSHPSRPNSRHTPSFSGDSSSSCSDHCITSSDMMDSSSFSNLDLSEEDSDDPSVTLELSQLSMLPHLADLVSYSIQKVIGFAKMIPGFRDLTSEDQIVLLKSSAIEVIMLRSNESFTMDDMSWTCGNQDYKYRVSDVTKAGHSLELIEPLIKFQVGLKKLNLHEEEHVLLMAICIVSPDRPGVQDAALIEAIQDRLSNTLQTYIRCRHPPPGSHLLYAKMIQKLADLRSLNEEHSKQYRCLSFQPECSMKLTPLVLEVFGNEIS
T1 sequence (P19793 1-462 partner): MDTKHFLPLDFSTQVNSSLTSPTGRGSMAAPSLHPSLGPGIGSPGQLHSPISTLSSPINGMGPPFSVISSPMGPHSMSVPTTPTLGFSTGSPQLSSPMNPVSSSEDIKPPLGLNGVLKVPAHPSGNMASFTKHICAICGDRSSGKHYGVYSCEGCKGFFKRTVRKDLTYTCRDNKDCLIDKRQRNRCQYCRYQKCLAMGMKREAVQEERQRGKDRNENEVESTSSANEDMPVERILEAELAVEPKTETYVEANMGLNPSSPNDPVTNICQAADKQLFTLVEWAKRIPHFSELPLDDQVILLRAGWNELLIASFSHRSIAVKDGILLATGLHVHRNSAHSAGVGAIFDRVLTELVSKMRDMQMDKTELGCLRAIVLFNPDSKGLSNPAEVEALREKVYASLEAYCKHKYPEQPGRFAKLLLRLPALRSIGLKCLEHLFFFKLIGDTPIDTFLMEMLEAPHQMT

Compound	Mean (number of MBP-positive cells/number of Hoechst33342-positive cells) ([1]; Test 2)	Concentration in brain/in blood ratio at brain Cmax [2]	Concentration in blood (mean ± SD) at brain Cmax [2] [nM]	Concentration in brain (mean ± SD) at brain Cmax [2] [pmol/g]	EC50 [3] [nM]	Mean (number of MBP-positive cells/number of Hoechst33342-positive cells) ([1]; Test 1)	Kp [2]
C=C1[C@H](O)CC(=C/C=C2\CCC[C@]3(C)[C@@H]([C@H](C)CN4CCCC(O)(C(F)F)C4)CC[C@@H]23)C[C@H]1O (single isomer, unassigned) [Compound C036b]	0.22	0.58	853 ± 89	495 ± 16	10 to 100		
C=C1/C(=C\C=C2/CCC[C@]3(C)[C@@H]([C@H](C)CN4CC[C@H](C(F)F)C4)CC[C@@H]23)C[C@@H](O)C[C@@H]1O [Compound B020, (1R,3S,Z)-5-(2-((1R,3aS,7aR,E)-1-((S)-1-((S)-3-(difluoromethyl)pyrrolidin-1-yl)propan-2-yl)-7a-methyloctahydro-4H-inden-4-ylidene)ethylidene)-4-methylenecyclohexane-1,3-diol]			676 ± 175	410 ± 23	10 to 100	0.38	0.61
C[C@H](CN1CC[C@H](C(F)F)C1)[C@H]1CC[C@H]2/C(=C/C=C3C[C@@H](O)C[C@H](O)C3)CCC[C@]12C [Compound B022, (1R,3R)-5-(2-((1R,3aS,7aR,E)-1-((S)-1-((S)-3-(difluoromethyl)pyrrolidin-1-yl)propan-2-yl)-7a-methyloctahydro-4H-inden-4-ylidene)ethylidene)cyclohexane-1,3-diol]			316 ± 84	529 ± 53	10 to 100	0.47	1.67
C=C1[C@H](O)CC(=C/C=C2\CCC[C@]3(C)[C@@H]([C@H](C)CN4CC[C@H](C(F)F)C4)CC[C@@H]23)C[C@H]1O [Compound B023, (1R,3R)-5-(2-((1R,3aS,7aR,E)-1-((S)-1-((S)-3-(difluoromethyl)pyrrolidin-1-yl)propan-2-yl)-7a-methyloctahydro-4H-inden-4-ylidene)ethylidene)-2-methylenecyclohexane-1,3-diol]			248 ± 28	852 ± 48	1 to 10	0.50	3.44
C=C1/C(=C\C=C2/CCC[C@]3(C)[C@@H]([C@H](C)CN4CC[C@H](C(C)(F)F)C4)CC[C@@H]23)C[C@@H](O)[C@H](C)[C@@H]1O [Compound B029, (1R,2S,3S,Z)-5-(2-((1R,3aS,7aR,E)-1-((S)-1-((S)-3-(1,1-difluoroethyl)pyrrolidin-1-yl)propan-2-yl)-7a-methyloctahydro-4H-inden-4-ylidene)ethylidene)-2-methyl-4-methylenecyclohexane-1,3-diol]			161 ± 40	156 ± 15	1 to 10	0.31	0.97
C=C1/C(=C\C=C2/CCC[C@]3(C)[C@@H]([C@H](C)CN4CC[C@H](CC(F)F)C4)CC[C@@H]23)C[C@@H](O)C[C@@H]1O [Compound B036]			61 ± 11	68 ± 36	10 to 100	0.59	1.12
C=C1/C(=C\C=C2/CCC[C@]3(C)[C@@H]([C@H](C)CN4CC[C@@H](CC(F)F)C4)CC[C@@H]23)C[C@@H](O)C[C@@H]1O [Compound B037, (1R,3S,Z)-5-(2-((1R,3aS,7aR,E)-1-((S)-1-((S)-3-(2,2-difluoroethyl)pyrrolidin-1-yl)propan-2-yl)-7a-methyloctahydro-4H-inden-4-ylidene)ethylidene)-4-methylenecyclohexane-1,3-diol]			88 ± 19	74 ± 17	10 to 100	0.49	0.84
C=C1[C@H](O)CC(=C/C=C2\CCC[C@]3(C)[C@@H]([C@H](C)CN4CC[C@@H](CC(F)F)C4)CC[C@@H]23)C[C@H]1O [Compound B041, (1R,3R)-5-(2-((1R,3aS,7aR,E)-1-((S)-1-((S)-3-(2,2-difluoroethyl)pyrrolidin-1-yl)propan-2-yl)-7a-methyloctahydro-4H-inden-4-ylidene)ethylidene)-2-methylenecyclohexane-1,3-diol]			207 ± 59	317 ± 19	1 to 10	0.56	1.53
C[C@H](CN1CC[C@H](CC(F)F)C1)[C@H]1CC[C@H]2/C(=C/C=C3C[C@@H](O)C[C@H](O)C3)CCC[C@]12C [Compound B042, (1R,3R)-5-(2-((1R,3aS,7aR,E)-1-((S)-1-((R)-3-(2,2-difluoroethyl)pyrrolidin-1-yl)propan-2-yl)-7a-methyloctahydro-4H-inden-4-ylidene)ethylidene)cyclohexane-1,3-diol]	0.53		79 ± 7	60 ± 5	10 to 100	0.62	0.75
C[C@H](CN1CC[C@H](OCC(F)F)C1)[C@H]1CC[C@H]2/C(=C/C=C3C[C@@H](O)C[C@H](O)C3)CCC[C@]12C [Compound B057, (1R,3R)-5-(2-((1R,3aS,7aR,E)-1-((S)-1-((S)-3-(2,2-difluoroethoxy)pyrrolidin-1-yl)propan-2-yl)-7a-methyloctahydro-4H-inden-4-ylidene)ethylidene)cyclohexane-1,3-diol]	0.57		271 ± 16	141 ± 8	100 to 1000		0.52
C[C@H](CN1CC[C@@H](CCC(F)F)C1)[C@H]1CC[C@H]2/C(=C/C=C3C[C@@H](O)C[C@H](O)C3)CCC[C@]12C [Compound B064, (1R,3R)-5-(2-((1R,3aS,7aR,E)-1-((S)-1-((R)-3-(3,3-difluoropropyl)pyrrolidin-1-yl)propan-2-yl)-7a-methyloctahydro-4H-inden-4-ylidene)ethylidene)cyclohexane-1,3-diol]	0.61		72 ± 11	38 ± 12	100 to 1000		0.53
C=C1[C@H](O)CC(=C/C=C2\CCC[C@]3(C)[C@@H]([C@H](C)CN4CCC(C(C)(F)F)CC4)CC[C@@H]23)C[C@H]1O [Compound C055, (1R,3R)-5-(2-((1R,3aS,7aR,E)-1-((S)-1-(4-(1,1-difluoroethyl)piperidin-1-yl)propan-2-yl)-7a-methyloctahydro-4H-inden-4-ylidene)ethylidene)-2-methylenecyclohexane-1,3-diol]	0.48		190 ± 23	338 ± 36	10 to 100		1.78
